Measurements reported in patent US20250387358A1 (SpringWorks Therapeutics, Inc., priority 2024, published 2025).

System: NF1-associated plexiform neurofibromas (PNs)
Test: Phase 2b trial, efficacy by BICR volumetric MRI per REiNS criteria
Format: in vivo, human
Settings: observed time
Description: Participants were screened (assessed for eligibility as described below). […] The median age was 34.5 years (range 18 to 69 years); 85% were white and 64% were female. […] The most commonly reported morbidities were pain (90%) and disfigurement or major deformity (52%).
The median age was 10 years (range 2 to 17 years); 66% were white and 54% were female. […] The most commonly reported morbidities were pain (70%) and disfigurement or major deformity (50%).
Study treatment was administered orally at a twice daily (BID) dose specified in the table below. Dosing was on a 28-day Cycle (4-week course) with a 3 week on/1 week off schedule. The treatment period will last for up to 24 Cycles followed by a 30-day Safety Follow-Up period.
A partial response was defined as PN decrease ≥20% compared to baseline using centrally read MRI volumetric analysis.
The major efficacy outcome measure was confirmed objective response rate (ORR), defined as the percentage of patients with complete response (disappearance of the target PN) or confirmed partial response (≥20% reduction in PN volume confirmed at a subsequent tumor assessment within 2-6 months during the 24-cycle treatment phase). Responses were assessed by blinded independent central review (BICR) using volumetric magnetic resonance imaging (MRI) analysis per Response Evaluation in Neurofibromatosis and Schwannomatosis (REINS) criteria. A secondary efficacy objective was to determine the duration of response for patients who achieved a confirmed objective response.

[1] = Pediatric, first DoR line (r12)
[2] = Pediatric, second DoR line (r13)

SMILES: O=C(NOC[C@H](O)CO)c1ccc(F)c(F)c1Nc1ccc(I)cc1F (single isomer, unassigned) [mirdametinib]
- DoR ≥12 months, % of responders (Adult, first DoR line (r12)): (88%)
- DoR ≥12 months, number of responders (Adult, first DoR line (r12)): 21
- DoR ≥12 months, % of responders (Adult, second DoR line (r13)): (48%)
- DoR ≥12 months, number of responders (Adult, second DoR line (r13)): 14
- DoR ≥12 months, % of responders [1]: (90%)
- DoR ≥12 months, number of responders [1]: 26
- DoR ≥12 months, % of responders [2]: (66%)
- DoR ≥12 months, number of responders [2]: 19
